Measurements reported in US5952320A, “Macrocyclic inhibitors of matrix metalloproteinases and TNFα secretion” (Abbott Laboratories, priority 1997, dated 1999).
Read-outs that look alike come from different tables or passages of the source.

Biological target: T1, Recombinant truncated stromelysin (human sequence) (Homo sapiens, UniProt P08254)
T1 construct: made in house; host or cells: E. coli
Assay: Determination of Stromelysin Inhibition (cleavage of thiopeptide ester substrate, DTNB, 405 nm)
Assay type: biochemical
Protocol: The efficacy of the compounds of this invention as matrix metalloproteinase inhibitors was determined by measuring the inhibition of stromelysin. The inhibition of stromelysin by the compounds of this invention was determined as follows: Recombinant truncated stromelysin (human sequence) produced in E. coli was prepared by expression and purification of the protein as described by Ye et al., Biochemistry, 1992, 31, 11231-11235. The enzyme was assayed by its cleavage of the thiopeptide ester substrate Ac-Pro-Leu-Gly-[2-mercapto-4-methyl-pentanoyl]-Leu-Gly-OEt described by Weingarten and Feder, Anal. Biochem., 1985, 147, 437-440 (1985), as a substrate of vertebrate collagenase. The reported conditions were modified to allow assays to be carried out in a microtiter plate. Upon hydrolysis of the thioester bond, the released thiol group reacts rapidly with 5,5'-dithio-bis(2-nitrobenzoic acid) (DTNB), producing a yellow color which is measured by a microtiter plate reader set at 405 nm. The rates of cleavage of the substrate by stromelysin in the presence or absence of inhibitors are measured in a 30 min assay at ambient temperature. Solutions of the compounds in DMSO are prepared, and these are diluted at various concentrations into the assay buffer (50 mM MES/NaOH pH 6.5 with 10 mM CaCl2 and 0.2% Pluronic F-68), which is also used for dilution of the enzyme and substrate. The potency of the compounds [IC50 ] are calculated from the inhibition/inhibitor concentration data.

[1] = Inhibitory potencies against stromelysin, 30 min assay at ambient temperature, pH 6.5, read-out: IC50

T1 sequence (P08254 100-272 limits assumed): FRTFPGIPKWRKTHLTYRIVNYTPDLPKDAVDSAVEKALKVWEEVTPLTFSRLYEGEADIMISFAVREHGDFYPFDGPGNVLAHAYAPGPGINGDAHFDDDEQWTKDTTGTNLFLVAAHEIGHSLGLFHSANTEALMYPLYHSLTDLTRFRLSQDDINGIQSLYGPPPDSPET

Compound	IC50 [1]	IC50
CC(C)C[C@H]1C(=O)N[C@H](C(=O)N2CCC[C@H]2C(=O)O)Cc2ccc(cc2)OCCCCC[C@@H]1C(=O)NO [Example 25]	44 nM	–
CNC(=O)[C@@H]1Cc2ccc(cc2)NCCCCC[C@H](C(=O)NO)[C@@H](CC(C)C)C(=O)N1 [Example 19]	20 nM	–
CNC(=O)[C@@H]1Cc2ccc(cc2)OCCCCC[C@H](C(=O)NO)[C@@H](CCCc2ccc(C)cc2)C(=O)N1 [Example 31]	2.9 nM	–
CC(C)C[C@H]1C(=O)N[C@H](C(=O)c2ccccc2)Cc2ccc(cc2)OCCCCC[C@@H]1C(=O)NO [Example 14]	2.7 nM	–
CNC(=O)[C@H]1NC(=O)[C@H](CC(C)C)[C@@H](C(=O)NO)CCCCCOc2ccc1cc2 [Example 41]	26 nM	–
CCCc1ccc(CC[C@H]2C(=O)N[C@H](C(=O)NC)Cc3ccc(cc3)OCCCC[C@@H]2C(=O)NO)cc1 [Example 34]	1.5 nM	–
CC(C)C[C@H]1C(=O)N[C@H](c2nc3ccccc3[nH]2)Cc2ccc(cc2)OCCCC[C@@H]1C(=O)NO [Example 7]	3.6 nM	–
CNC(=O)[C@@H]1Cc2ccc(cc2)N(C(=O)OCc2ccccc2)CCCCC[C@H](C(=O)NO)[C@@H](CC(C)C)C(=O)N1 [Example 18]	0.61 nM	–
CNC(=O)[C@@H]1Cc2ccc(cc2)OCCC[C@H](C(=O)NO)[C@@H](CC(C)C)C(=O)N1 [Example 10]	7.8 nM	–
CC(C)C[C@H]1C(=O)N[C@H](C(=O)Nc2ccccc2)Cc2ccc(cc2)OCCCC[C@@H]1C(=O)NO [Example 4]	2.4 nM	–
CC(C)C[C@H]1C(=O)N[C@H](C(=O)NCCc2ccc(S(N)(=O)=O)cc2)Cc2ccc(cc2)OCCCC[C@@H]1C(=O)NO [Example 1]	6.9 nM	–
CC(C)C[C@H]1C(=O)N[C@H](C(=O)c2ccc[nH]2)Cc2ccc(cc2)OCCCCC[C@@H]1C(=O)NO [Example 15]	7.2 nM	–
CC(C)C[C@H]1C(=O)N[C@H](C(=O)N2CCOCC2)Cc2ccc(cc2)OCCCC[C@@H]1C(=O)NO [Example 5]	9.3 nM	–
CC(C)C[C@H]1C(=O)N[C@H](c2nc(-c3ccccc3)c[nH]2)Cc2ccc(cc2)OCCCCC[C@@H]1C(=O)NO [Example 23]	8.1 nM	–
CC(C)C[C@H]1C(=O)N[C@H](C(=O)NCCc2ccccc2)Cc2ccc(cc2)OCCCC[C@@H]1C(=O)NO [Example 2]	7.2 nM	–
Cc1ccc(CCC[C@H]2C(=O)N[C@H](C(=O)O)Cc3ccc(cc3)OCCCC[C@@H]2C(=O)NO)cc1 [Example 32]	–	6.7 nM

Compound	IC50 [1]	IC50
CC(C)C[C@H]1C(=O)N[C@H](C(=O)Nc2ccccn2)Cc2ccc(cc2)OCCCC[C@@H]1C(=O)NO [Example 6]	2.6 nM	–
CNC(=O)[C@@H]1Cc2ccc(cc2)OCCCCC[C@H](C(=O)O)[C@@H](CCCc2ccc(C)cc2)C(=O)N1 [Example 30]	20 nM	–
CNC(=O)[C@@H]1Cc2ccc(cc2)/C=C\CCCCC(C(=O)NO)[C@@H](CC(C)C)C(=O)N1 (stereo partly shown) [Example 13]	2.4 nM	–
CC(C)C[C@H]1C(=O)N[C@H](C(=O)N2CCC[C@H]2C(=O)OCc2ccccc2)Cc2ccc(cc2)OCCCCC[C@@H]1C(=O)NO [Example 24]	8.9 nM	–
CNC(=O)[C@@H]1Cc2ccc(cc2)OCCCCC[C@H](C(=O)NO)[C@@H](CC(C)C)C(=O)N1 [Example 11]	6.1 nM	–
CNC(=O)[C@@H]1Cc2ccc(cc2)OCCCCCC[C@H](C(=O)NO)[C@@H](CC(C)C)C(=O)N1 [Example 12]	12 nM	–
CNC(=O)[C@@H]1Cc2ccc(cc2)OCCCC[C@H](C(=O)NO)[C@@H](CC(C)C)C(=O)N1 [8 anti]	3.9 nM	–
CC(C)C[C@H]1C(=O)N[C@H](C(=O)NC2CC2)Cc2ccc(cc2)OCCCC[C@@H]1C(=O)NO [Example 3]	5.8 nM	–
CNC(=O)[C@@H]1Cc2ccc(cc2)NC(=O)CCCC[C@H](C(=O)NO)[C@@H](CC(C)C)C(=O)N1 [Example 16]	23 nM	–
Cc1ccc(CCC[C@H]2C(=O)N[C@H](C(=O)NCCN(C)C)Cc3ccc(cc3)OCCCC[C@@H]2C(=O)NO)cc1 [Example 38]	0.56 nM	–
CC(C)C[C@H]1C(=O)N[C@H](C(=O)O)Cc2ccc(cc2)OCCCCC[C@@H]1C(=O)NO [Example 21]	–	39 nM
CNC(=O)[C@@H]1Cc2ccc(cc2)OCCCC[C@@H](C(=O)NO)[C@@H](CC(C)C)C(=O)N1 [8 syn]	570 nM	–
CC(C)C[C@H]1C(=O)N[C@H](C(=O)OCc2ccccc2)Cc2ccc(cc2)OCCCCC[C@@H]1C(=O)NO [Example 20]	92 nM	–
COC(=O)[C@@H]1Cc2ccc(cc2)OCCCCC[C@H](C(=O)NO)[C@@H](CC(C)C)C(=O)N1 [Example 26]	–	27 nM
CNC(=O)[C@@H]1Cc2ccc(cc2)OCCC[C@H](C(=O)O)[C@@H](CC(C)C)C(=O)N1 [Example 9]	2100 nM	–
